Key:
Experiment in all cases: relative viability (nuclei count vs DMSO), 5 days (fraction); higher = more cells survive
NCI-H441 = tested on: NCI-H441
Summary of the method: (§1)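 Relative viability equals treated-well nuclei counts divided by vehicle-well nuclei counts. Counts came from 4× images of lung cancer cell lines grown in 1536-well plates for 5 days after pin-tool dosing on the day after seeding. Dosing used one drug alone or a fixed anchor-drug dose plus five library-drug doses (not always all listed) in √10 steps, and values are medians of duplicate plates.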

NCI-H1437 = tested on: NCI-H1437
Summary of the method: as §1

LOU-NH91 = tested on: LOU-NH91
Summary of the method: as §1

NCI-H661 = tested on: NCI-H661
Summary of the method: as §1

CAL-12T = tested on: CAL-12T
Summary of the method: as §1

NCI-H3122 = tested on: NCI-H3122
Summary of the method: as §1

COR-L 105 = tested on: COR-L 105
Summary of the method: as §1

NCI-H460 = tested on: NCI-H460
Summary of the method: as §1

NCI-H1666 = tested on: NCI-H1666
Summary of the method: as §1

LK-2 = tested on: LK-2
Summary of the method: as §1

BEN = tested on: BEN
Summary of the method: as §1

ABC-1 = tested on: ABC-1
Summary of the method: as §1

EKVX = tested on: EKVX
Summary of the method: as §1

NCI-H1650 = tested on: NCI-H1650
Summary of the method: as §1

NCI-H727 = tested on: NCI-H727
Summary of the method: as §1

PC-14 = tested on: PC-14
Summary of the method: as §1

NCI-H2170 = tested on: NCI-H2170
Summary of the method: as §1

NCI-H2009 = tested on: NCI-H2009
Summary of the method: as §1

201T = tested on: 201T
Summary of the method: as §1

HARA = tested on: HARA
Summary of the method: as §1

HCC-366 = tested on: HCC-366
Summary of the method: as §1

With O=c1cc(-c2cccc3c2Sc2ccccc2S3)oc(N2CCOCC2)c1 + C[C@@H](Oc1cc(-c2cnn(C3CCNCC3)c2)cnc1N)c1c(Cl)ccc(F)c1Cl [Crizotinib] (partner 1 µM) the relative viability (NCI-H441; first compound 0.08 µM) was 0.697, the relative viability (NCI-H441; first compound 0.253 µM) was 1.28 and the relative viability (NCI-H441; first compound 0.8 µM) was 0.779. The relative viability (NCI-H441; first compound 2.53 µM) was 0.807, the relative viability (NCI-H441; first compound 8 µM) was 1 and the relative viability (NCI-H1437; first compound 0.08 µM) was 1.09. The relative viability (NCI-H1437; first compound 0.253 µM) was 1.18, the relative viability (NCI-H1437; first compound 0.8 µM) was 1.24 and the relative viability (NCI-H1437; first compound 2.53 µM) was 0.899. The relative viability (NCI-H1437; first compound 8 µM) was 1.07, the relative viability (LOU-NH91; first compound 0.08 µM) was 0.727 and the relative viability (LOU-NH91; first compound 0.253 µM) was 0.718. It also gave a relative viability (LOU-NH91; first compound 0.8 µM) of 0.707, a relative viability (LOU-NH91; first compound 2.53 µM) of 0.702 and a relative viability (LOU-NH91; first compound 8 µM) of 0.776. The relative viability (NCI-H661; first compound 0.08 µM) was 1.15, the relative viability (NCI-H661; first compound 0.253 µM) was 1.04 and the relative viability (NCI-H661; first compound 0.8 µM) was 1.13. For the same compound, the relative viability (NCI-H661; first compound 2.53 µM) was 0.939, the relative viability (NCI-H661; first compound 8 µM) was 0.958 and the relative viability (CAL-12T; first compound 0.08 µM) was 0.729. For the same compound, the relative viability (CAL-12T; first compound 0.253 µM) was 0.686, the relative viability (CAL-12T; first compound 0.8 µM) was 0.85 and the relative viability (CAL-12T; first compound 2.53 µM) was 0.6. It also gave a relative viability (CAL-12T; first compound 8 µM) of 0.731, a relative viability (NCI-H3122; first compound 0.08 µM) of 0.324 and a relative viability (NCI-H3122; first compound 0.253 µM) of 0.266. It also gave a relative viability (NCI-H3122; first compound 0.8 µM) of 0.24, a relative viability (NCI-H3122; first compound 2.53 µM) of 0.3 and a relative viability (NCI-H3122; first compound 8 µM) of 0.323. It also gave a relative viability (COR-L 105; first compound 0.08 µM) of 0.833, a relative viability (COR-L 105; first compound 0.253 µM) of 0.706 and a relative viability (COR-L 105; first compound 0.8 µM) of 0.752. The relative viability (COR-L 105; first compound 2.53 µM) was 0.798, the relative viability (COR-L 105; first compound 8 µM) was 1.07 and the relative viability (NCI-H460; first compound 0.08 µM) was 1. For the same compound, the relative viability (NCI-H460; first compound 0.8 µM) was 0.761, the relative viability (NCI-H460; first compound 2.53 µM) was 1.12 and the relative viability (NCI-H460; first compound 8 µM) was 1.79. It also gave a relative viability (NCI-H1666; first compound 0.08 µM) of 0.911, a relative viability (NCI-H1666; first compound 0.253 µM) of 1.04 and a relative viability (NCI-H1666; first compound 0.8 µM) of 0.922. The relative viability (NCI-H1666; first compound 2.53 µM) was 0.916, the relative viability (NCI-H1666; first compound 8 µM) was 0.857 and the relative viability (LK-2; first compound 0.08 µM) was 0.196. The relative viability (LK-2; first compound 0.253 µM) was 0.224, the relative viability (LK-2; first compound 0.8 µM) was 0.194 and the relative viability (LK-2; first compound 2.53 µM) was 0.231. The relative viability (LK-2; first compound 8 µM) was 0.208, the relative viability (BEN; first compound 0.08 µM) was 0.925 and the relative viability (BEN; first compound 0.253 µM) was 1.02. The relative viability (BEN; first compound 0.8 µM) was 1.1, the relative viability (BEN; first compound 2.53 µM) was 0.85 and the relative viability (BEN; first compound 8 µM) was 1.14. For the same compound, the relative viability (ABC-1; first compound 0.08 µM) was 1.27, the relative viability (ABC-1; first compound 0.253 µM) was 1.24 and the relative viability (ABC-1; first compound 0.8 µM) was 1.05. The relative viability (ABC-1; first compound 2.53 µM) was 1.31, the relative viability (ABC-1; first compound 8 µM) was 1.49 and the relative viability (EKVX; first compound 0.08 µM) was 0.896. The relative viability (EKVX; first compound 0.253 µM) was 1.1, the relative viability (EKVX; first compound 0.8 µM) was 0.971 and the relative viability (EKVX; first compound 2.53 µM) was 1.04. It also gave a relative viability (EKVX; first compound 8 µM) of 1.04, a relative viability (NCI-H1650; first compound 0.08 µM) of 0.998 and a relative viability (NCI-H1650; first compound 0.253 µM) of 0.956. The relative viability (NCI-H1650; first compound 0.8 µM) was 0.945, the relative viability (NCI-H1650; first compound 2.53 µM) was 0.963 and the relative viability (NCI-H1650; first compound 8 µM) was 1.35. For the same compound, the relative viability (NCI-H727; first compound 0.253 µM) was 0.892, the relative viability (NCI-H727; first compound 2.53 µM) was 0.724 and the relative viability (NCI-H727; first compound 8 µM) was 0.868. The relative viability (PC-14; first compound 0.08 µM) was 0.979, the relative viability (PC-14; first compound 0.253 µM) was 1.13 and the relative viability (PC-14; first compound 0.8 µM) was 0.945. The relative viability (PC-14; first compound 2.53 µM) was 0.899, the relative viability (PC-14; first compound 8 µM) was 0.868 and the relative viability (NCI-H2170; first compound 0.08 µM) was 1.17. It also gave a relative viability (NCI-H2170; first compound 0.253 µM) of 1.19, a relative viability (NCI-H2170; first compound 0.8 µM) of 1.31 and a relative viability (NCI-H2170; first compound 2.53 µM) of 1.12. It also gave a relative viability (NCI-H2170; first compound 8 µM) of 1.26, a relative viability (NCI-H2009; first compound 0.08 µM) of 1.02 and a relative viability (NCI-H2009; first compound 0.253 µM) of 1.02. The relative viability (NCI-H2009; first compound 0.8 µM) was 1.05, the relative viability (NCI-H2009; first compound 2.53 µM) was 0.957 and the relative viability (NCI-H2009; first compound 8 µM) was 1.03. It also gave a relative viability (201T; first compound 0.08 µM) of 1, a relative viability (201T; first compound 0.253 µM) of 0.889 and a relative viability (201T; first compound 0.8 µM) of 1. The relative viability (201T; first compound 2.53 µM) was 1.08, the relative viability (201T; first compound 8 µM) was 0.958 and the relative viability (HARA; first compound 0.08 µM) was 0.971. The relative viability (HARA; first compound 0.253 µM) was 1.12, the relative viability (HARA; first compound 0.8 µM) was 1 and the relative viability (HARA; first compound 2.53 µM) was 1.05. It also gave a relative viability (HARA; first compound 8 µM) of 1.28, a relative viability (HCC-366; first compound 0.08 µM) of 0.53 and a relative viability (HCC-366; first compound 0.253 µM) of 0.731. It also gave a relative viability (HCC-366; first compound 0.8 µM) of 0.725, a relative viability (HCC-366; first compound 2.53 µM) of 0.498 and a relative viability (HCC-366; first compound 8 µM) of 1.1.

From the supplement of paper PMC10307832
